Test results as given in ChEMBL document CHEMBL1134060, “Synthesis and evaluation of hexahydrochrysene and tetrahydrobenzofluorene ligands for the estrogen receptor” (Bioorg Med Chem Lett, 2001).

What was measured:
[1] = molecular target: Estrogen receptor beta (Homo sapiens) (UniProt Q92731); assay: Relative binding affinity for human Estrogen receptor beta compared to estradiol (E2)
[2] = molecular target: Estrogen receptor beta (Homo sapiens) (UniProt Q92731); assay: Transcriptional activation in human endometrial carcinoma (HEC-1) cells expressing estrogen receptor beta at 10e-9 M; format: functional
[3] = molecular target: Estrogen receptor beta (Homo sapiens) (UniProt Q92731); assay: Antagonistic effect on 1 nM estradiol induced transcriptional activation in HEC-1 cells expressing estrogen receptor beta at 10e-6 M; format: functional, cell-based
[4] = molecular target: T1, Estrogen receptor (Homo sapiens) (UniProt P03372); assay: Antagonistic effect on 1 nM estradiol induced transcriptional activation in HEC-1 cells expressing estrogen receptor alpha at 10e-7 M; format: functional, cell-based
T1 sequence (whole entry): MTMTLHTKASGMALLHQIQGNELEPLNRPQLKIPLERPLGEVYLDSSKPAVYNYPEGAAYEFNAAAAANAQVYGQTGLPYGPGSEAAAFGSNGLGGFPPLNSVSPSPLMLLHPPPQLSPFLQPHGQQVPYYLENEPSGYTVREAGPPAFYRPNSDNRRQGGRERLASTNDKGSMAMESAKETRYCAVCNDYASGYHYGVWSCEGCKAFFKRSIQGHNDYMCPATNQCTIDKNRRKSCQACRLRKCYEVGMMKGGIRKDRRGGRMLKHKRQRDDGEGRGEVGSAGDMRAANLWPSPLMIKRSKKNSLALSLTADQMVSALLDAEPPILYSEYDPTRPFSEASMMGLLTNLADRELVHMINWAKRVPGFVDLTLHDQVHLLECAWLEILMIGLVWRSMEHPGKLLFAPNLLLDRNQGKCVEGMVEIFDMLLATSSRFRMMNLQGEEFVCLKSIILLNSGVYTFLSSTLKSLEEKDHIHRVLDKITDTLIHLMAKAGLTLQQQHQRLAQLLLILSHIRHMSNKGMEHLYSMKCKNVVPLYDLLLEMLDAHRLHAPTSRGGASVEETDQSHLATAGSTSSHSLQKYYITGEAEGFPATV

[5] = molecular target: Estrogen receptor beta (Homo sapiens) (UniProt Q92731); assay: Antagonistic effect on 1 nM estradiol induced transcriptional activation in HEC-1 cells expressing estrogen receptor beta at 10e-7 M; format: functional, cell-based
[6] = molecular target: Estrogen receptor beta (Homo sapiens) (UniProt Q92731); assay: Transcriptional activation in human endometrial carcinoma (HEC-1) cells expressing estrogen receptor beta at 10e-6 M; format: functional
[7] = molecular target: Estrogen receptor beta (Homo sapiens) (UniProt Q92731); assay: Antagonistic effect on 1 nM estradiol induced transcriptional activation in HEC-1 cells expressing estrogen receptor beta at 10e-8 M; format: functional, cell-based
[8] = molecular target: T1, Estrogen receptor (Homo sapiens); assay: Antagonistic effect on 1 nM estradiol induced transcriptional activation in HEC-1 cells expressing estrogen receptor alpha at 10e-6 M; format: functional, cell-based
[9] = molecular target: Estrogen receptor beta (Homo sapiens) (UniProt Q92731); assay: Antagonistic effect on 1 nM estradiol induced transcriptional activation in HEC-1 cells expressing estrogen receptor beta at 10e-9 M; format: functional, cell-based

Sequence of Estrogen receptor beta (Homo sapiens) (Q92731 whole entry): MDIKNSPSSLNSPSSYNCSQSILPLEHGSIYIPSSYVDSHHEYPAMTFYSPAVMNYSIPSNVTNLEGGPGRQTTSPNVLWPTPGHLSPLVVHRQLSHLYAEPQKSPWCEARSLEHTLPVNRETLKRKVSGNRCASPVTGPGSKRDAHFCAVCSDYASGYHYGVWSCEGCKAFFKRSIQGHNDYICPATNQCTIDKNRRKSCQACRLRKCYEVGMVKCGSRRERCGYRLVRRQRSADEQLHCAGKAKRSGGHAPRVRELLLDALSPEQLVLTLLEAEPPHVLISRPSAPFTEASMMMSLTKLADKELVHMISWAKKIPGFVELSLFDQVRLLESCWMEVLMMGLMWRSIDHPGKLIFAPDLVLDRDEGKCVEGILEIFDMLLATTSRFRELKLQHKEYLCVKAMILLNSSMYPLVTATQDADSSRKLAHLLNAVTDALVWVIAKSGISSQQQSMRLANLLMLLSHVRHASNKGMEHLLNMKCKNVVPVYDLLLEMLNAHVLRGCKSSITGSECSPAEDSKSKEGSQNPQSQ

Question: How did the RBA [1] turn out when `CCC1c2cc(O)ccc2[C@H]2CCc3cc(O)ccc3[C@@H]12` (stereo in doubt; 17a) was run?
Answer: Its RBA is 300%.

Question: With `CCC1c2cc(O)ccc2[C@H]2CCc3cc(O)ccc3[C@@H]12` (stereo in doubt; 17b) as the molecule, how does the RBA [1] read?
Answer: Its RBA is 280%.

Question: How did the RBA [1] turn out when `Oc1ccc2c(c1)CC[C@H]1c3ccc(O)cc3CC[C@@H]21` was run?
Answer: Its RBA is 130%.

Question: How did the Response [2] turn out when `Oc1ccc2c(c1)CC[C@@H]1c3ccc(O)cc3[C@H](c3ccc(OCCN4CCCCC4)cc3)[C@H]21` was run?
Answer: The Response was 70%.

Question: What about the Response [3] of the same molecule?
Answer: Its Response is 5%.

Question: What about the Response [4] of the same molecule?
Answer: Its Response is 10%.

Question: What about the Response [5] of the same molecule?
Answer: The Response was 15%.

Question: And the Response [6]?
Answer: The Response was 5%.

Question: What about the Response [7] of the same molecule?
Answer: The Response was 30%.

Question: And the RBA [1]?
Answer: The RBA was 10%.

Question: For `Oc1ccc2c(c1)CC[C@@H]1c3ccc(O)cc3C[C@H](c3ccc(OCCN4CCCCC4)cc3)[C@H]21`, which Response [8] is on record?
Answer: Its Response is 25%.

Question: What about the Response [5] of the same molecule?
Answer: Its Response is 104%.

Question: And the Response [7]?
Answer: The Response was 105%.

Question: And the Response [9]?
Answer: Its Response is 5%.

Question: And the RBA [1]?
Answer: The RBA was 0.06%.

Question: `CC[C@@H]1Cc2cc(O)ccc2C2=C1c1ccc(O)cc1C[C@H]2CC` was tested. Which RBA [1] did it give?
Answer: Its RBA is 144%.

Question: Which RBA [1] does the source give for `Oc1ccc2c(c1)CCC1=C2CCc2cc(O)ccc21` here?
Answer: The RBA was 6.5%.

Question: With `O=C1c2cc(O)ccc2[C@H]2CCc3cc(O)ccc3[C@@H]12` as the molecule, how does the RBA [1] read?
Answer: The RBA was 2%.

Question: Which RBA [1] does the source give for `Oc1ccc2c(c1)CC[C@@H]1c3ccc(O)cc3CC[C@H]21` here?
Answer: Its RBA is 71%.

Question: With `CCC1Cc2cc(O)ccc2C2C(CC)Cc3cc(O)ccc3C12` (stereo unspecified) as the molecule, how does the RBA [1] read?
Answer: Its RBA is 16%.

Question: `Oc1ccc2c(c1)C[C@@H]1c3ccc(O)cc3CC[C@H]21` was tested. Which RBA [1] did it give?
Answer: Its RBA is 63%.
